This experiment concerns the target T1, FLT1 (VEGFR1) (Homo sapiens, UniProt P17948).
T1 construct: purchased Thermo Fisher Scientific (Life Technologies) SelectScreen
In words: SelectScreen Z'LYTE. The experiment is classed as biochemical. The essentials:
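Percent values come from Thermo SelectScreen profiling of NU5455, combining activity and binding assays. CSF1R was run in Z'LYTE format at Km app ATP, and CAMK1 in Adapta format with ATP listed at 10.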

T1 sequence (P17948 27-1338): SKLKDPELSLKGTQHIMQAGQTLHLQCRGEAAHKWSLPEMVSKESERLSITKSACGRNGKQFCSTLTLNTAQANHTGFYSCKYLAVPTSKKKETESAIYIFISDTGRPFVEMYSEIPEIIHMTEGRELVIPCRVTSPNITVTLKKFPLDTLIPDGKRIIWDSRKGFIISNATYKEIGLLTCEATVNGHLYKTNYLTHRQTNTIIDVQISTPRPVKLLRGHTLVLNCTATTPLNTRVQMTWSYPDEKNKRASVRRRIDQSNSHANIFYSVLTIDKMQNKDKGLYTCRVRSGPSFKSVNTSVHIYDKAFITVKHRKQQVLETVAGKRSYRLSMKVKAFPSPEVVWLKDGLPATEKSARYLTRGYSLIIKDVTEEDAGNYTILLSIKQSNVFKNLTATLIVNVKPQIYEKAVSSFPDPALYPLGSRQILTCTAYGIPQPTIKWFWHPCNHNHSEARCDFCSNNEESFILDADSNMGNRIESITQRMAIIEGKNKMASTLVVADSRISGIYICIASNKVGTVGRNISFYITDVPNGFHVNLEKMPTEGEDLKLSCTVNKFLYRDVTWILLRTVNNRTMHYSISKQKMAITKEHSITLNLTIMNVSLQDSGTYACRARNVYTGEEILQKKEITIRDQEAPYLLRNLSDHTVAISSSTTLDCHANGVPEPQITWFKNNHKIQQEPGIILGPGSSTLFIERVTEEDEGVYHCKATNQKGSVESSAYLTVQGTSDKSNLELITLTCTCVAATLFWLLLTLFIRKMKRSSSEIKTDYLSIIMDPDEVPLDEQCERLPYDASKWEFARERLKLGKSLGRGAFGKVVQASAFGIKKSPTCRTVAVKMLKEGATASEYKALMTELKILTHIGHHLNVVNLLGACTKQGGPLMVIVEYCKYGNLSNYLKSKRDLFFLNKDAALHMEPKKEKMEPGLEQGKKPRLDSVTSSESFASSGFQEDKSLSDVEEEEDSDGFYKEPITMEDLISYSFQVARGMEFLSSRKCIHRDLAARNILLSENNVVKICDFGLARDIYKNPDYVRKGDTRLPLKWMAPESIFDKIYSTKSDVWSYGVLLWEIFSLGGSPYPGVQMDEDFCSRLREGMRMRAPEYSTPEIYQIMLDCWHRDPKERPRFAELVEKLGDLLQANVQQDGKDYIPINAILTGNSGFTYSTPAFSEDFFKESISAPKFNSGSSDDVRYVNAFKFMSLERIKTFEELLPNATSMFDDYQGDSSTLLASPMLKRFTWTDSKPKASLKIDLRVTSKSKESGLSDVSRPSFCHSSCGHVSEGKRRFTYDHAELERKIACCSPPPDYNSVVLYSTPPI

A word on the inhibition: it is the change of the read-out against control, counted positive when it falls. Compound `CN(C(=O)CN1CCOCC1)c1ccc2sc3c(-c4cccc5c(=O)cc(N6CC7CCC(C6)O7)oc45)cccc3c2c1` [NU5455] registered an inhibition at 1 µM of 6.5%.

These data come from paper PMC6934184, “Selective DNA-PKcs inhibition extends the therapeutic index of localized radiotherapy and chemotherapy” (The Journal of Clinical Investigation, 2019).
